{"source": "patent US6603046B1", "about": "“Bis-aromatic a,β-unsaturated ketones” (Lica Pharmaceuticals A/S, priority 1992, dated 2003)", "key": {"P. yoelii strain YM": {"tested_on": "P. yoelii strain YM", "assay": "P. yoelii strain YM infection in mice, parasitemia and mortality (Example 16)", "assay_type": "in vivo, BALB/c mice", "conditions": "for % parasitemia, Mean: orally 100 mg/kg/dose 3 and 24 h after infection"}, "L. micdadei": {"tested_on": "L. micdadei", "assay": "microbe, parasite or virus in culture", "assay_type": "cell-based, Legionella micdadei"}, "Bacillus subtilis": {"tested_on": "Bacillus subtilis", "assay": "MIC, macrodilution (Example 17)", "assay_type": "cell-based", "conditions": "1 strain"}, "Gram positive cocci": {"tested_on": "Gram positive cocci", "assay": "MIC, macrodilution (Example 17), text summary", "assay_type": "cell-based"}, "M. avium": {"tested_on": "M. avium", "assay": "Radiometric MIC (Example 19)", "assay_type": "cell-based"}, "Eimeria tenella": {"tested_on": "Eimeria tenella", "assay": "Anticoccidial activity in chickens infected with Eimeria tenella (Example 28)", "assay_type": "in vivo"}, "[1]": {"conditions": "D + 11, 10 mg per kg twice daily days +1 to +4"}, "[2]": {"conditions": "D + 12, 10 mg per kg twice daily days +1 to +4"}, "[3]": {"conditions": "D + 12, i.p. 10 mg/kg twice daily D-1, D0"}, "[4]": {"conditions": "D + 14, i.p. 10 mg/kg twice daily D-1, D0"}, "[5]": {"conditions": "D + 15, 10 mg per kg twice daily days +1 to +4"}, "[6]": {"conditions": "D + 16, 10 mg per kg twice daily days +1 to +4"}, "[7]": {"conditions": "D + 16, i.p. 10 mg/kg four times daily D + 4 to D + 7"}, "[8]": {"conditions": "D + 16, i.p. 10 mg/kg twice daily D-1, D0"}, "[9]": {"conditions": "D + 17, 10 mg per kg twice daily days +1 to +4"}, "[10]": {"conditions": "D + 18, i.p. 10 mg/kg four times daily D + 4 to D + 7"}, "[11]": {"conditions": "D + 18, i.p. 10 mg/kg twice daily D-1, D0"}, "[12]": {"conditions": "D + 20, i.p. 10 mg/kg four times daily D + 4 to D + 7"}, "[13]": {"conditions": "D + 20, i.p. 10 mg/kg twice daily D-1, D0"}, "[14]": {"conditions": "amount of feed consumed per kg chicken weight gain, doses as Table 28.1"}, "[15]": {"conditions": "in feed: salinomycin 70 ppm, 2,5 m4′ac and 2,4 mc 30 mg/kg/day, licochalcone A 10 mg/kg/day"}}, "note": "Values joined by “and” are separate entries in the source; they are usually repeats but may differ in a detail not shown here. Equal values may be shown once. Read-outs that look alike come from different tables or passages of the source. Marks after values point to notes of the source that are not given here."}
{"smiles": "C=CC(C)(C)c1cc(/C=C/C(=O)c2ccc(O)cc2)c(OC)cc1O", "note": "[Licochalcone A, licochalcone A]", "values": [{"measurement": "Parasitemia, mean", "setting": "P. yoelii strain YM; [1]", "result": 37.0, "unit": "%"}, {"measurement": "Parasitemia, single mice", "setting": "P. yoelii strain YM; [1]", "result": "33.0% and 41.0%"}, {"measurement": "Parasitemia, single mice", "setting": "P. yoelii strain YM; D + 11, 40 mg/kg/day in 2 injections, days +1 to +6, 40 mg/kg/day", "result": 51.0, "unit": "%"}, {"measurement": "Parasitemia, mean", "setting": "P. yoelii strain YM; [2]", "result": 74.0, "unit": "%"}, {"measurement": "Parasitemia, single mice", "setting": "P. yoelii strain YM; [2]", "result": "80.0% and 68.0%"}, {"measurement": "% parasitemia (mean ± SEM)", "setting": "P. yoelii strain YM; D + 12, 10 mg/kg/day twice daily, 3 h after infection, D + 1 to D + 5", "result": "14.4 ± 8.9", "unit": "%"}, {"measurement": "% parasitemia (mean ± SEM)", "setting": "P. yoelii strain YM; D + 12, 15 mg/kg/day twice daily, 3 h after infection, D + 1 to D + 5", "result": 0, "unit": "%"}, {"measurement": "mortality (no. of dead mice/total no. of tested mice)", "setting": "P. yoelii strain YM; D + 12, i.p. 5 mg/kg/day twice daily to D + 3", "result": "(5/5)"}, {"measurement": "% parasitemia (mean ± SEM)", "setting": "P. yoelii strain YM; D + 12, i.p. 10 mg/kg four times daily D + 4 to D + 7", "result": "50.4 ± 15.6", "unit": "%"}, {"measurement": "% parasitemia (mean ± SEM)", "setting": "P. yoelii strain YM; [3]", "result": "55.7 ± 48.4", "unit": "%"}, {"measurement": "mortality (no. of dead mice/total no. of tested mice)", "setting": "P. yoelii strain YM; [3]", "result": "2/5"}, {"measurement": "mortality (no. of dead mice/total no. of tested mice)", "setting": "P. yoelii strain YM; D + 12, i.p. 10 mg/kg/day twice daily to D + 3", "result": "4/5"}, {"measurement": "% parasitemia (mean ± SEM)", "setting": "P. yoelii strain YM; D + 12, i.p. 10 mg/kg/day twice daily, 3 h after infection and D + 1 to D + 3", "result": 82, "unit": "%"}, {"measurement": "mortality (no. of dead mice/total no. of tested mice)", "setting": "P. yoelii strain YM; D + 12, i.p. 15 mg/kg/day twice daily to D + 3", "result": "(1/5)"}, {"measurement": "% parasitemia (mean ± SEM)", "setting": "P. yoelii strain YM; D + 12, i.p. 15 mg/kg/day twice daily, 3 h after infection and D + 1 to D + 3", "result": "4.8 ± 3.2", "unit": "%"}, {"measurement": "Parasitemia, mean", "setting": "P. yoelii strain YM; D + 13, 10 mg per kg twice daily days +1 to +4", "result": 50.0, "unit": "%"}, {"measurement": "% parasitemia, Mean", "setting": "P. yoelii strain YM; D + 13", "result": 6.5, "unit": "%"}, {"measurement": "Parasitemia, mean", "setting": "P. yoelii strain YM; D + 14, 10 mg per kg twice daily days +1 to +4", "result": 35.0, "unit": "%"}, {"measurement": "mortality (no. of dead mice/total no. of tested mice)", "setting": "P. yoelii strain YM; D + 14, 10 mg/kg/day twice daily to D + 5", "result": "1/5"}, {"measurement": "% parasitemia (mean ± SEM)", "setting": "P. yoelii strain YM; D + 14, 10 mg/kg/day twice daily, 3 h after infection, D + 1 to D + 5", "result": "17 ± 17", "unit": "%"}, {"measurement": "% parasitemia (mean ± SEM)", "setting": "P. yoelii strain YM; D + 14, 15 mg/kg/day twice daily, 3 h after infection, D + 1 to D + 5", "result": 0, "unit": "%"}, {"measurement": "% parasitemia (mean ± SEM)", "setting": "P. yoelii strain YM; D + 14, i.p. 10 mg/kg four times daily D + 4 to D + 7", "result": "58.6 ± 9.0", "unit": "%"}, {"measurement": "% parasitemia (mean ± SEM)", "setting": "P. yoelii strain YM; [4]", "result": 0, "unit": "%"}, {"measurement": "mortality (no. of dead mice/total no. of tested mice)", "setting": "P. yoelii strain YM; [4]", "result": "4/5"}, {"measurement": "mortality (no. of dead mice/total no. of tested mice)", "setting": "P. yoelii strain YM; D + 14, i.p. 10 mg/kg/day twice daily to D + 3", "result": "(5/5)"}, {"measurement": "mortality (no. of dead mice/total no. of tested mice)", "setting": "P. yoelii strain YM; D + 14, i.p. 15 mg/kg/day twice daily to D + 3", "result": "1/5"}, {"measurement": "% parasitemia (mean ± SEM)", "setting": "P. yoelii strain YM; D + 14, i.p. 15 mg/kg/day twice daily, 3 h after infection and D + 1 to D + 3", "result": 0, "unit": "%"}, {"measurement": "Parasitemia, mean", "setting": "P. yoelii strain YM; [5]", "result": 2.0, "unit": "%"}, {"measurement": "Parasitemia, single mice", "setting": "P. yoelii strain YM; [5]", "result": 2.0, "unit": "%"}, {"measurement": "Parasitemia, mean", "setting": "P. yoelii strain YM; [6]", "result": 0.3, "unit": "%"}, {"measurement": "Parasitemia, single mice", "setting": "P. yoelii strain YM; [6]", "result": "0.5% and 0.1%"}, {"measurement": "mortality (no. of dead mice/total no. of tested mice)", "setting": "P. yoelii strain YM; D + 16, 10 mg/kg/day twice daily to D + 5", "result": "2/5"}, {"measurement": "% parasitemia (mean ± SEM)", "setting": "P. yoelii strain YM; D + 16, 10 mg/kg/day twice daily, 3 h after infection, D + 1 to D + 5", "result": 0, "unit": "%"}, {"measurement": "% parasitemia (mean ± SEM)", "setting": "P. yoelii strain YM; D + 16, 15 mg/kg/day twice daily, 3 h after infection, D + 1 to D + 5", "result": 0, "unit": "%"}, {"measurement": "% parasitemia (mean ± SEM)", "setting": "P. yoelii strain YM; [7]", "result": "75.8 ± 6.6", "unit": "%"}, {"measurement": "mortality (no. of dead mice/total no. of tested mice)", "setting": "P. yoelii strain YM; [7]", "result": "1/5"}, {"measurement": "% parasitemia (mean ± SEM)", "setting": "P. yoelii strain YM; [8]", "result": 0, "unit": "%"}, {"measurement": "mortality (no. of dead mice/total no. of tested mice)", "setting": "P. yoelii strain YM; [8]", "result": "4/5"}, {"measurement": "% parasitemia, Mean", "setting": "P. yoelii strain YM; D + 16", "result": 0, "unit": "%"}, {"measurement": "Parasitemia, mean", "setting": "P. yoelii strain YM; [9]", "result": 0.0, "unit": "%"}, {"measurement": "Parasitemia, single mice", "setting": "P. yoelii strain YM; [9]", "result": 0.0, "unit": "%"}, {"measurement": "mortality (no. of dead mice/total no. of tested mice)", "setting": "P. yoelii strain YM; D + 18, 10 mg/kg/day twice daily to D + 5", "result": "2/5"}, {"measurement": "% parasitemia (mean ± SEM)", "setting": "P. yoelii strain YM; D + 18, 10 mg/kg/day twice daily, 3 h after infection, D + 1 to D + 5", "result": 0, "unit": "%"}, {"measurement": "% parasitemia (mean ± SEM)", "setting": "P. yoelii strain YM; D + 18, 15 mg/kg/day twice daily, 3 h after infection, D + 1 to D + 5", "result": 0, "unit": "%"}, {"measurement": "% parasitemia (mean ± SEM)", "setting": "P. yoelii strain YM; [10]", "result": "53 ± 25", "unit": "%"}, {"measurement": "mortality (no. of dead mice/total no. of tested mice)", "setting": "P. yoelii strain YM; [10]", "result": "2/5"}, {"measurement": "% parasitemia (mean ± SEM)", "setting": "P. yoelii strain YM; [11]", "result": 0, "unit": "%"}, {"measurement": "mortality (no. of dead mice/total no. of tested mice)", "setting": "P. yoelii strain YM; [11]", "result": "4/5"}, {"measurement": "% parasitemia (mean ± SEM)", "setting": "P. yoelii strain YM; [12]", "result": "19 ± 9.7", "unit": "%"}, {"measurement": "mortality (no. of dead mice/total no. of tested mice)", "setting": "P. yoelii strain YM; [12]", "result": "3/5"}, {"measurement": "% parasitemia (mean ± SEM)", "setting": "P. yoelii strain YM; [13]", "result": 0, "unit": "%"}, {"measurement": "mortality (no. of dead mice/total no. of tested mice)", "setting": "P. yoelii strain YM; [13]", "result": "4/5"}, {"measurement": "MIC", "setting": "L. micdadei; Fluoribacter gormanii, read-out: MIC-values, Legionella gormanii and the 4 L. micdadei isolates", "result": "15 to 500", "unit": "µg/mL"}, {"measurement": "MIC", "setting": "L. micdadei; Legionella micdadei, L. micdadei (Bari)", "result": 60, "unit": "µg/mL"}, {"measurement": "MIC", "setting": "L. micdadei; Legionella micdadei, L. micdadei (Detroit)", "result": 15, "unit": "µg/mL"}, {"measurement": "MIC", "setting": "L. micdadei; Legionella micdadei, L. micdadei (F 1433)", "result": 60, "unit": "µg/mL"}, {"measurement": "MIC", "setting": "L. micdadei; Legionella micdadei, L. micdadei, 1 strain", "result": 500, "unit": "µg/mL"}, {"measurement": "MIC", "setting": "Bacillus subtilis", "result": 4, "unit": "µg/mL"}, {"measurement": "MIC", "setting": "Gram positive cocci", "result": "4000 to 8000", "unit": "µg/mL"}, {"measurement": "meanMIC", "setting": "M. avium; AIDS patients, n=4", "result": "> 80", "unit": "µg/mL"}, {"measurement": "MIC", "setting": "M. avium; Mycobacterium avium, read-out: MIC, all M. avium/intracellular strains", "result": "≥ 20", "unit": "µg/mL"}, {"measurement": "meanMIC", "setting": "M. avium; non AIDS patients, n=7", "result": "> 80", "unit": "µg/mL"}, {"measurement": "percentages of chickens showing pathological signs versus infected control group", "setting": "Eimeria tenella; 10 mg/kg/day in feed", "result": "much lower"}, {"measurement": "feed consumption after 7 days of treatment", "setting": "Eimeria tenella; [14]", "result": 1.26}, {"measurement": "feed consumption after 14 days of treatment", "setting": "Eimeria tenella; [14]", "result": 1.31}, {"measurement": "Weight gain in 7 days after initiation of treatment", "setting": "Eimeria tenella; [15]", "result": 414, "unit": "grams per chicken"}, {"measurement": "Weight gain in 14 days after initiation of treatment", "setting": "Eimeria tenella; [15]", "result": "864^b grams per chicken"}, {"measurement": "Difference in weight gain to group 5 (control infected) after treatment for 14 days", "setting": "Eimeria tenella; normal variation ±2%", "result": "^bDifference between groups 4 (licochalcone A) and 5 (control infected) after treatment for 14 days is 7.6%."}, {"measurement": "Mortality", "setting": "Eimeria tenella; number of chickens, groups of 35, licochalcone A 20", "result": 0}]}
